Data taken from US10973922B2, “Glycoprotein-toxic payload conjugates” (GLYKOS FINLAND OY, priority 2013, dated 2021).
Where a SMILES comes first, the peptide text is derived from it. [ ]: non-standard residue; d: D form. Dolaproine = CO[C@@H]([C@@H]1CCCN1)[C@@H](C)C(=O)O; Dil = CC[C@H](C)[C@H](NC)[C@@H](CC(=O)O)OC; NMeV = CN[C@H](C(=O)O)C(C)C

Assays:
[1] = test system: SKOV-3 ovarian cancer cell; assay: In vitro cytotoxicity of dolastatin derivatives (PrestoBlue cell viability); assay type: cell-based, Human; settings: for IC50: concentration range wherein SKOV-3 cell viability falls to 50%, 96 h, measured range 1 nM-10 μM; for cytotoxicity compared to 1 (MMAF): SKOV-3, applied to cell culture medium; for cytotoxicity compared to 2 (monomethyldolastatin 10): SKOV-3
Description: Human ovarian cancer cell line SKOV-3 was from the ATCC (Manassas, Va., USA). The cells were grown according to the manufacturer's recommendations. Log phase cultures were collected and 5000 cells/well were seeded onto 96-well plates and incubated for 24 h. Serial dilutions of test molecules from a stock solution of 100 μM in 10% DMSO were made in cell culture medium, added to cells (maximum concentration of dimethylsulphoxide was 1%) and cultures were incubated further for 96 h. Cell viability was evaluated using PrestoBlue cell viability reagent (Life Technologies, Carlsbad, Calif., USA) according to the manufacturer's instructions. Cells were incubated for 2 h, and dye reduction was measured by absorbance at 570 nm. The compounds were assayed 1-2 times in triplicate.
Results of an exemplary assay are shown in FIG. 1, in which compound numbering is according to Example 1. The results are expressed in Table 1 as IC50 values of the analyzed derivatives.

[2] = Hydrophilicity by reverse-phase HPLC elution; assay type: physicochemical; settings: C-18 reverse-phase column, eluted at lower ACN concentration
Description: The products were purified by Äkta purifier 10 (GE Healthcare) HPLC instrument with Gemini-NX-5u C-18 reverse-phase column (4.6×250 mm, 110 Å (Phenomenex)) eluted with ACN gradient in aqueous ammonium hydrogen carbonate or aqueous trifluoroacetic acid.

CCC(C)C(C(CC(=O)N1CCCC1C(OC)C(C)C(=O)NC(Cc1ccccc1)C(=O)O)OC)N(C)C(=O)C(NC(=O)C(C(C)C)N(C)CC(O)C(O)C(O)C(O)COC1OC(CO)C(O)C(O)C1O)C(C)C [Compound 8, N-[6-O-(β-D-galactopyranosyl)-D-galactosyl]-MMAF]
IC50 ([1]; Homo sapiens, SK-OV-3): 1 to 10 µM
cytotoxicity compared to 1 (MMAF) [1]: less cytotoxic

CC[C@H](C)[C@@H]([C@@H](CC(=O)N1CCC[C@H]1[C@H](OC)[C@@H](C)C(=O)N[C@@H](Cc1ccccc1)C(=O)O)OC)N(C)C(=O)[C@@H](NC(=O)[C@@H](NC)C(C)C)C(C)C [Compound 1, Monomethylauristatin F, reference compound] (H-[NMeV]V[Dil][Dolaproine]F-OH)
IC50 [1]: 0.1 to 1 µM

N-(6-azido-6-deoxy-D-galactosyl)-MMAF [Compound 4]
IC50 [1]: 0.1 to 1 µM

CCC(C)C(C(CC(=O)N1CCCC1C(OC)C(C)C(=O)NC(Cc1ccccc1)C(=O)O)OC)N(C)C(=O)C(NC(=O)C(C(C)C)N(C)CC(O)C(O)C(OC1OC(CO)C(O)C(OC2(C(=O)O)CC(O)C(NC(C)=O)C(C(O)C(O)CO)O2)C1O)C(O)CO)C(C)C [Compound 11, N-{4-O-[3-O-(α-N-acetylneuraminyl)-β-D-galactopyranosyl]-D-glucosyl}-MMAF]
cytotoxicity compared to 1 (MMAF) [1]: less cytotoxic
IC50 [1]: > 10 µM

CN[C@H](C(=O)N[C@H](C(=O)N(C)[C@@H](C(C)C)[C@@H](CC(=O)N1CCC[C@H]1[C@H](OC)[C@@H](C)C(=O)N[C@@H](Cc1ccccc1)c1nccs1)OC)C(C)C)C(C)C [Compound 2, monomethyldolastatin 10, reference compound]
IC50 [1]: < 0.001 µM

C#CCCN(C)C(C(=O)NC(C(=O)N(C)C(C(C)CC)C(CC(=O)N1CCCC1C(OC)C(C)C(=O)NC(Cc1ccccc1)C(=O)O)OC)C(C)C)C(C)C (stereo not drawn) [Compound 6, N-(3-butynyl)-MMAF]
IC50 ([1]; Homo sapiens, SK-OV-3): < 0.001 µM
cytotoxicity compared to 1 (MMAF) [1]: more cytotoxic

CCC(C)C(C(CC(=O)N1CCCC1C(OC)C(C)C(=O)NC(Cc1ccccc1)C(=O)O)OC)N(C)C(=O)C(NC(=O)C(C(C)C)N(C)CC(O)C(O)C(OC1OC(CO)C(OC2OC(CO)C(O)C(O)C2O)C(O)C1O)C(O)CO)C(C)C [Compound 10, N-{4-O-[4-O-(α-D-galactopyranosyl)-β-D-galactopyranosyl]-D-glucosyl}-MMAF]
IC50 ([1]; Homo sapiens, SK-OV-3): 1 to 10 µM

CCC(C)C(C(CC(=O)N1CCCC1C(OC)C(C)C(=O)NC(Cc1ccccc1)C(=O)O)OC)N(C)C(=O)C(NC(=O)C(C(C)C)N(C)CCC(O)C(O)C(O)CO)C(C)C [Compound 5, N-(2-deoxy-D-glucosyl)-MMAF]
IC50 ([1]; Homo sapiens, SK-OV-3): 1 µM
cytotoxicity compared to 1 (MMAF) [1]: equally or only slightly less cytotoxic
hydrophilicity compared to MMAF (1) and N-(3-butynyl)-MMAF (6) [2]: more hydrophilic

CCC(C)C(C(CC(=O)N1CCCC1C(OC)C(C)C(=O)NC(Cc1ccccc1)C(=O)O)OC)N(C)C(=O)C(NC(=O)C(C(C)C)N(C)C(=O)CCCC(=O)O)C(C)C (stereo not drawn) [Compound 14b, N-glutaryl-MMAF]
IC50 ([1]; Homo sapiens, SK-OV-3): 0.1 to 1 µM
cytotoxicity compared to 2 (monomethyldolastatin 10) [1]: equally or only slightly less cytotoxic

CCC(C)C(C(CC(=O)N1CCCC1C(OC)C(C)C(=O)NC(Cc1ccccc1)c1nccs1)OC)N(C)C(=O)C(NC(=O)C(C(C)C)N(C)CC(O)C(O)C(O)C(O)CN=[N+]=[N-])C(C)C [Compound 13, N-(6-azido-6-deoxy-D-galactosyl)-dolastatin 10]
IC50 ([1]; Homo sapiens, SK-OV-3): < 0.001 µM
cytotoxicity compared to 2 (monomethyldolastatin 10) [1]: equally or only slightly less cytotoxic

N-(6-O-propargyl-D-galactosyl)-MMAF [Compound 3]
IC50 [1]: 0.1 to 10 µM
